Reference: patent US9169241B2, “Quinolinyloxyphenylsulfonamides” (Max-Planck-Gesellschaft Zur Forderung der Wissenschaften …, priority 2009, dated 2015)

Biological target: T1, wild type AXL (wtAXL) receptor tyrosine kinase (Homo sapiens, UniProt P30530)
T1 construct: WtAXL cDNA was cloned into vector pLXSN(ESK) and transfected into Phoenix E packaging cells; expressed in transfected cells; host or cells: NIH3T3 N7 (mouse fibroblasts), retrovirally infected, clone 22
T1 sequence (P30530 26-894): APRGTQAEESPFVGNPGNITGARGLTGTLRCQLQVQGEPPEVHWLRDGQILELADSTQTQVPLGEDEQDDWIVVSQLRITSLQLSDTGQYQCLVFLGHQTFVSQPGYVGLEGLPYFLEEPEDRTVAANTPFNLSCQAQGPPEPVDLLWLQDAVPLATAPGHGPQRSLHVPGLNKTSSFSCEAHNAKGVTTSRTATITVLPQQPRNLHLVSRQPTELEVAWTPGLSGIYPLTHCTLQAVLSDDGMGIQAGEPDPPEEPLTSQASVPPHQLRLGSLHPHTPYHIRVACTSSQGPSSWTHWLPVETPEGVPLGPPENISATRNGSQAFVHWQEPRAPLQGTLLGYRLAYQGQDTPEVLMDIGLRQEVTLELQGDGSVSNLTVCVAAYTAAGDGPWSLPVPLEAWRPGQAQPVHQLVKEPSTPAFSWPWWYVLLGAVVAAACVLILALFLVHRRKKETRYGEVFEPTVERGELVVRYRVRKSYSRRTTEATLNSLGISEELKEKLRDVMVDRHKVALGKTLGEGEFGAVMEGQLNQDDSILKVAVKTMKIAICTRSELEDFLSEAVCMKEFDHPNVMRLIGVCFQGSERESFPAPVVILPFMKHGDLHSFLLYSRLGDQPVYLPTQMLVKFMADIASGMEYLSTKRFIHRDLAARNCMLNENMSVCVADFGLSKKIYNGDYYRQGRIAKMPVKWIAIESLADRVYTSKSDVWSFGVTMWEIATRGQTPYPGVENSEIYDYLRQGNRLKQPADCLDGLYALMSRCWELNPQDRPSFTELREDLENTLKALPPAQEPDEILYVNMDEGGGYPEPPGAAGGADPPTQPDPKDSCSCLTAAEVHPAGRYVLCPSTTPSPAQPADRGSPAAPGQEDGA
Test: NIH-3T3-AXL cellular kinase assay (pY-AXL-ELISA)
Type: cell-based
Conditions: NIH-3T3-AXL (clone 22) cells, serum depleted, compounds 1 h; Table Ia
In short: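 NIH3T3 cells stably expressing human wild-type AXL (retroviral, puromycin-selected clones) were treated with serial compound dilutions for 1 h and lysed. AXL tyrosine phosphorylation was measured by ELISA on the lysates: biotinylated 4G10 anti-phosphotyrosine, streptavidin-alkaline phosphatase, AttoPhos fluorescence at 430/560 nm after 90 min.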

| Compound | IC50 [µM] |
| --- | --- |
| COC(=O)c1sccc1S(=O)(=O)Nc1ccc(Oc2ccnc3cc(OCCCN4CCC(C)CC4)c(OC)cc23)c(F)c1 [Example 156, 3-(3-Fluoro-4-{6-methoxy-7-[3-(4-methyl-piperidin-1-yl)-propoxy]-quinolin-4-yloxy}-phenylsulfamoyl)-thiophene-2-carboxylic acid methyl ester] | < 0.5 |
| COc1cc2c(Oc3ccc(NS(=O)(=O)c4ccccc4OC(F)(F)F)cc3F)ccnc2cc1OCCCN1CCCC(C)C1 (stereo not drawn) [Example 45, N-(3-Fluoro-4-{6-methoxy-7-[3-(3-methyl-piperidin-1-yl)-propoxy]-quinolin-4-yloxy}-phenyl)-2-trifluoromethoxy-benzenesulfonamide] | < 0.5 |
| COc1cc2c(Oc3ccc(NS(=O)(=O)c4c(Cl)cccc4Cl)cc3F)ccnc2cc1OCCCN1CCCCC1 [Example 6, 2,6-Dichloro-N-{3-fluoro-4-[6-methoxy-7-(3-piperidin-1-yl-propoxy)-quinolin-4-yloxy]-phenyl}-benzenesulfonamide] | < 0.5 |
| COc1cc2c(Oc3c(Cl)cc(NS(=O)(=O)c4ccccc4C(F)(F)F)cc3Cl)ccnc2cc1OCCCN1CCC(C)CC1 [Example 210, N-(3,5-Dichloro-4-{6-methoxy-7-[3-(4-methyl-piperidin-1-yl)-propoxy]-quinolin-4-yloxy}-phenyl)-2-trifluoromethyl-benzenesulfonamide] | < 0.5 |
| COc1cc2c(Oc3ccc(NS(=O)(=O)c4ccccc4OC(F)(F)F)cc3F)ccnc2cc1OCCCN1CCCCC1 [Example 78, N-{3-Fluoro-4-[6-methoxy-7-(3-piperidin-1-yl-propoxy)-quinolin-4-yloxy]-phenyl}-2-trifluoromethoxy-benzenesulfonamide] | < 0.5 |
| COC(=O)c1sccc1S(=O)(=O)Nc1ccc(Oc2ccnc3cc(OCCCN4CCCC(C)C4)c(OC)cc23)c(F)c1 (stereo not drawn) [Example 66, 3-(3-Fluoro-4-{6-methoxy-7-[3-(3-methyl-piperidin-1-yl)-propoxy]-quinolin-4-yloxy}-phenylsulfamoyl)-thiophene-2-carboxylic acid methyl ester] | < 0.5 |
| COc1cc2c(Oc3ccc(NS(=O)(=O)c4cccc(Cl)c4F)cc3F)ccnc2cc1OCCCN1CCCC(C)C1 (stereo not drawn) [Example 54, 3-Chloro-2-fluoro-N-(3-fluoro-4-{6-methoxy-7-[3-(3-methyl-piperidin-1-yl)-propoxy]-quinolin-4-yloxy}-phenyl)-benzenesulfonamide] | < 0.5 |
| COc1cc2c(Oc3ccc(NS(=O)(=O)c4c(Cl)cccc4Cl)cc3F)ccnc2cc1OCCCN(C)C [Example 181, 2,6-Dichloro-N-{4-[7-(3-dimethylamino-propoxy)-6-methoxy-quinolin-4-yloxy]-3-fluoro-phenyl}-benzenesulfonamide] | < 0.5 |
| COc1cc2c(Oc3ccc(NS(=O)(=O)c4c(F)cccc4F)cc3F)ccnc2cc1OCCCN(C)C [Example 178, N-{4-[7-(3-Dimethylamino-propoxy)-6-methoxy-quinolin-4-yloxy]-3-fluoro-phenyl}-2,6-difluoro-benzenesulfonamide] | < 0.5 |
| COc1cc2c(Oc3ccc(NS(=O)(=O)c4ccc(F)c(F)c4F)cc3F)ccnc2cc1OCCCN1CCCC(C)C1 (stereo not drawn) [Example 49, 2,3,4-Trifluoro-N-(3-fluoro-4-{6-methoxy-7-[3-(3-methyl-piperidin-1-yl)-propoxy]-quinolin-4-yloxy}-phenyl)-benzenesulfonamide] | < 0.5 |
| COc1cc2c(Oc3ccc(NS(=O)(=O)c4c(F)cccc4F)cc3F)ccnc2cc1OCCCN1CCN(C)CC1 [Example 110, 2,6-Difluoro-N-(3-fluoro-4-{6-methoxy-7-[3-(4-methyl-piperazin-1-yl)-propoxy]-quinolin-4-yloxy}-phenyl)-benzenesulfonamide] | < 0.5 |
| COc1cc2c(Oc3ccc(NS(=O)(=O)c4c(Cl)cccc4Cl)cc3Cl)ccnc2cc1OCCCN1CCN(C)CC1 [Example 119, 2,6-Dichloro-N-(3-chloro-4-{6-methoxy-7-[3-(4-methyl-piperazin-1-yl)-propoxy]-quinolin-4-yloxy}-phenyl)-benzenesulfonamide] | < 0.5 |
| COC(=O)c1sccc1S(=O)(=O)Nc1ccc(Oc2ccnc3cc(OCCCN(C)C)c(OC)cc23)c(F)c1 [Example 184, 3-{4-[7-(3-Dimethylamino-propoxy)-6-methoxy-quinolin-4-yloxy]-3-fluoro-phenylsulfamoyl}-thiophene-2-carboxylic acid methyl ester] | < 0.5 |
| COc1cc2c(Oc3ccc(NS(=O)(=O)c4c(F)cccc4F)cc3F)ccnc2cc1OCCCN1CCCCC1 [Example 11, 2,6-Difluoro-N-{3-fluoro-4-[6-methoxy-7-(3-piperidin-1-yl-propoxy)-quinolin-4-yloxy]-phenyl}-benzenesulfonamide] | < 0.5 |
| COc1cc2c(Oc3ccc(NS(=O)(=O)c4c(Cl)cccc4Cl)cc3F)ccnc2cc1OCCN1CCOCC1 [Example 104, 2,6-Dichloro-N-{3-fluoro-4-[6-methoxy-7-(2-morpholin-4-yl-ethoxy)-quinolin-4-yloxy]-phenyl}-benzenesulfonamide] | < 0.5 |
| COc1cc2c(Oc3ccc(NS(=O)(=O)c4c(Cl)cccc4Cl)cc3F)ccnc2cc1OCCCN1CCCC(C)C1 (stereo not drawn) [Example 51, 2,6-Dichloro-N-(3-fluoro-4-{6-methoxy-7-[3-(3-methyl-piperidin-1-yl)-propoxy]-quinolin-4-yloxy}-phenyl)-benzenesulfonamide] | < 0.5 |
| COc1cc2c(Oc3c(Cl)cc(NS(=O)(=O)c4c(F)cccc4F)cc3Cl)ccnc2cc1OCCCN1CCC(C)CC1 [Example 209, N-(3,5-Dichloro-4-{6-methoxy-7-[3-(4-methyl-piperidin-1-yl)-propoxy]-quinolin-4-yloxy}-phenyl)-2,6-difluoro-benzenesulfonamide] | < 0.5 |

The next lines start with the values.

| IC50 [µM] | Compound |
| --- | --- |
| < 0.5 | COc1cc2c(Oc3ccc(NS(=O)(=O)c4ccccc4OC(F)(F)F)cc3F)ccnc2cc1OCCCN(C)C [Example 179, N-{4-[7-(3-Dimethylamino-propoxy)-6-methoxy-quinolin-4-yloxy]-3-fluoro-phenyl}-2-trifluoromethoxy-benzenesulfonamide] |
| < 0.5 | COC(=O)c1sccc1S(=O)(=O)Nc1ccc(Oc2ccnc3cc(OCCCN4CCCCC4)c(OC)cc23)c(F)c1 [Example 155, 3-{3-Fluoro-4-[6-methoxy-7-(3-piperidin-1-yl-propoxy)-quinolin-4-yloxy]-phenylsulfamoyl}-thiophene-2-carboxylic acid methyl ester] |
| < 0.5 | COc1cc2c(Oc3ccc(NS(=O)(=O)c4cc(F)ccc4F)cc3Cl)ccnc2cc1OCCCN1CCN(C)CC1 [Example 112, N-(3-Chloro-4-{6-methoxy-7-[3-(4-methyl-piperazin-1-yl)-propoxy]-quinolin-4-yloxy}-phenyl)-2,5-difluoro-benzenesulfonamide] |
| < 0.5 | COc1cc2c(Oc3ccc(NS(=O)(=O)c4ccccc4[N+](=O)[O-])cc3F)ccnc2cc1OCCCN1CCCC(C)C1 (stereo not drawn) [Example 40, N-(3-Fluoro-4-{6-methoxy-7-[3-(3-methyl-piperidin-1-yl)-propoxy]-quinolin-4-yloxy}-phenyl)-2-nitro-benzenesulfonamide] |
| < 0.5 | COc1cc2c(Oc3ccc(NS(=O)(=O)c4cc(F)ccc4F)cc3F)ccnc2cc1OCCCN1CCN(C)CC1 [Example 12, 2,5-Difluoro-N-(3-fluoro-4-{6-methoxy-7-[3-(4-methyl-piperazin-1-yl)-propoxy]-quinolin-4-yloxy}-phenyl)-benzenesulfonamide] |
| < 0.5 | COC(=O)c1sccc1S(=O)(=O)Nc1ccc(Oc2ccnc3cc(OCCCN4CCN(C)CC4)c(OC)cc23)c(F)c1 [Example 158, 3-(3-Fluoro-4-{6-methoxy-7-[3-(4-methyl-piperazin-1-yl)-propoxy]-quinolin-4-yloxy}-phenylsulfamoyl)-thiophene-2-carboxylic acid methyl ester] |
| < 0.5 | COC(=O)c1sccc1S(=O)(=O)Nc1ccc(Oc2ccnc3cc(OCCCN4CCOCC4)c(OC)cc23)c(F)c1 [Example 157, 3-{3-Fluoro-4-[6-methoxy-7-(3-morpholin-4-yl-propoxy)-quinolin-4-yloxy]-phenylsulfamoyl}-thiophene-2-carboxylic acid methyl ester] |
